This is an account of results in patent publication US11771678B2 (NATIONAL UNIVERSITY CORPORATION KUMAMOTO UNIVERSITY, priority 2016, dated 2023).

Structures are written as SMILES.

The test system of assay [1] is methylmalonic acidemia-derived NPCs. The assay is described as follows: cAMP production ability test with Forskolin (intracellular cAMP ELISA). To be noted: Forskolin 10 μmol/l, after 24 hours; compared with NPCs from normal iPS cells. The format is cell-based, human. As for the experimental part: (3) On the occasion of performing measurement, a pretreatment of cells was carried out. Cells were detached from the culture plate, the number of cells was counted, and centrifugation was performed. After the centrifugation, the supernatant was suctioned, and the residue was suspended in a 0.1 M HCl solution at a concentration of 1×10^6/cells/mL. In the case of cells with a known cell count, a series of these operations was omitted, and 0.1 M HCl was introduced directly onto the culture plate while the cells were adhered. After suspending, the suspension was incubated at room temperature for 10 minutes and then was centrifuged at 600 g/5 minutes. […] (4) For the measurement, measurement was carried out through a series of the following processes. • A neutralizing liquid (Neutralizing reagent) was introduced in an amount of 50 μL into wells other than total activity (TA) and blanks. • Subsequently, 100 μL of a standard diluent was added to non-specific binding (NBS) and BO (0 pmol/mL standard). Furthermore, 50 μL of a standard diluent was added to the wells of NBS. […] The light absorbance at 405 nm was measured. […]
Background: Changes in cAMP serve as a functional read-out for many G protein-coupled receptors.

Assay [2] concerns lethal methylmalonic acid seizure model. The assay is described as follows: In vivo test using survival rate as index, lethal methylmalonic acid seizure model. Also on record: species or system C57BL/6J mice. To be noted: db-cAMP 10 μg/kg/dose subcutaneous. As for the experimental part:
An evaluation of administration of candidate drugs was carried out using the survival rate as an index, using a lethal methylmalonic acid seizure model.
1. A […] methylmalonic acid solution was intraperitoneally administered to eight-week old C57BL/6J mice at a dose of 20 ml/kg, and thus a lethal methylmalonic acid seizure model was produced.
2. After one day, after two days, and after three days from the administration of methylmalonic acid, subcutaneous administration of db-cAMP (10 μg/kg/dose) as a candidate drug was performed, and a comparison of the survival rates in an administered group and a non-administered group was carried out.

Assay [3] relates to Adenylate cyclase. Briefly: Adenylate cyclase inhibition by methylmalonic acid: cAMP concentration in B42NPCs. The assay is classed as cell-based, human. To be noted: methylmalonic acid 50 μM or 100 μM in culture fluid, 24 hours. On the procedure: cAMP is produced from ATP by Adenylate cyclase. From this point of view, an investigation was conducted on whether methylmalonic acid would inhibit Adenylate cyclase.

Assay [4] relates to Adenylate cyclase, CREB, phosphorylated CREB. Briefly: Protein expression analysis by Western Blotting in B42NPCs. To be noted: presence or absence of methylmalonic acid. The format is cell-based, human. As for the experimental part: 2. Meanwhile, the protein expression analysis shown in FIG. 6 was carried out based on the existing Western Blotting method.
In general terms: A western blot detects proteins with antibodies after separation by electrophoresis.

For the compound `C=C[C@@]1(C)CC(=O)[C@]2(O)[C@@]3(C)[C@@H](O)CCC(C)(C)[C@@H]3[C@H](O)[C@H](OC(C)=O)[C@@]2(C)O1` [Forskolin, (3R,4aR,5S,6S,6aS,10S,10aR,10bS)-6,10,10b-trihydroxy-3,4a,7,7,10a-pentamethyl-1-oxo-3-vinyldodecahydro-1H-benzo[f]chromen-5-yl acetate], the “reactivity to Forskolin (intracellular cAMP concentration)” value in assay [1] is “decrease in reactivity to Forskolin was recognized”.
Regarding `CCCC(=O)Nc1ncnc2c1ncn2[C@@H]1O[C@@H]2COP(=O)(O)O[C@H]2[C@H]1OC(=O)CCC` [db-cAMP, dibutyl-cAMP], the “vital prognosis based on seizure originating from methylmalonic acidemia” value in assay [2] is listed as “markedly ameliorated”. For the same compound, the “survival rate after two days” value in assay [2] (non-administered group 14.7%, p<0.001) worked out at 75.0%. The “survival rate one day after the administration of methylmalonic acid” value in assay [2] (non-administered group 35.3%) is recorded as 85.0%.
`CC(C(=O)O)C(=O)O` [methylmalonic acid]: the cAMP production power result in assay [3] is “as the methylmalonic acid concentration in the culture fluid is higher, the cAMP production power is decreased”. Moreover, the “total amounts of protein expression of Adenylate cyclase and CREB” value in assay [4] is “constant”.
